Laboratory results: ChEMBL document CHEMBL1150437, “Synthesis and neuraminidase inhibition studies of 4-azido, amino, and acetamido substituted sialosides” (Bioorg Med Chem Lett, 1994)

Tested on: unidentified influenza virus
Assay: Compound was tested for inhibition of Influenza neuraminidase
Format: functional, organism-based

Structure (SMILES) | Ki [µM]
CC(=O)N[C@H]1[C@H]([C@H](O)[C@H](O)CO)O[C@@](OC[C@@H]2O[C@H](O)[C@@H](O)[C@@H](O)[C@H]2O)(C(=O)O)C[C@H]1N | 150
CC(=O)NC1C(N)CC(SC(C)C2OC(O)C(O)C(O)C2O)(C(=O)O)OC1[C@H](O)[C@H](O)CO (some centres not stated) | 50
